System: turfgrass
Assay: Example B4, conclusion in words
Format: in vivo
Conditions: applied with Formula I
Protocol: The phytotoxicity to turfgrass of the compound of formula I in combination with various safeners was tested. The combinations were applied by post emergence spray application. Percentage phytotoxicity assessments were taken at various timepoints. The safeners tested in these trials were cloquintocet-mexyl, cyprosulfamide, a compound of formula 2.3, and isoxadifen-ethyl.

| SMILES | safener effectiveness, in words |
| --- | --- |
| CNC(=O)Nc1ccc(S(=O)(=O)NC(=O)c2ccccc2OC)cc1 [Formula 2.3] | particular effective safeners |
| COc1ccccc1C(=O)NS(=O)(=O)c1ccc(C(=O)NC2CC2)cc1 [cyprosulfamide] | particular effective safeners |

Reference: patent US20100184596A1, “METHOD FOR THE CONTROL OF WEEDS IN TURF” (SYNGENTA CROP PROTECTION, INC., priority 2007, published 2010)
